# Experimental data from paper PMC9667936, “Functional mapping of the 14-3-3 hub protein as a guide to design 14-3-3 molecular glues” (Chemical Science, 2022).
# Where a SMILES comes first, the peptide text is derived from it. [ ]: non-standard residue; d: D form. The star is where a group is joined. ξ: configuration not given here. FITC = O=C1OC2(c3ccc(O)cc3Oc3cc(O)ccc32)c2ccc(NC(=S)*)cc21; Phe(4-NO2) = N[C@@H](Cc1ccc([N+](=O)[O-])cc1)C(=O)O; ξAla(4-thiazolyl) = NC(Cc1cscn1)C(=O)O; pS = N[C@@H](COP(=O)(O)O)C(=O)O; Nva = CCC[C@H](N)C(=O)O; AEA = NCCOCC(=O)O
# Biological target: T1, 14-3-3γ (Homo sapiens, UniProt P61981)
# T1 construct: made in house; host or cells: E. coli NiCo21 (DE3)
# T1 sequence (P61981 1-247): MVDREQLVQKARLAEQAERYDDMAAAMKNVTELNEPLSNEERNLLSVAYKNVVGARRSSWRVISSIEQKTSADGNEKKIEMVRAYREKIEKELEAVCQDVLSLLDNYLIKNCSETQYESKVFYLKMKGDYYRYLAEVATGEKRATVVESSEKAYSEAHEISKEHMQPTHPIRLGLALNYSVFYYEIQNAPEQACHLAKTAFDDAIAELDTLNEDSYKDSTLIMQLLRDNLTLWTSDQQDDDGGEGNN
# Test: Fluorescence anisotropy (FA) binary binding study: 14-3-3 titrated to fluorescein-labelled peptide
# Conditions: for Fold change to previous / ΔG / ΔΔG (to previous): Table S3
# Experimental: 14-3-3γ protein expression (FP/ITC experiments)
# (§1) A pPROEX HTb expression vector encoding the human 14-3-3 protein gamma (14-3-3γ) with an N-terminal his6-tag was transformed by heat shock into NiCo21 (DE3) competent cells. Single colonies were cultured in 50 mL LB medium (100 µg/mL ampicillin). After overnight incubation at 37 °C, cultures were transferred to 2 L TB media (100 µg/mL ampicillin, 1 mM MgCl2) and incubated at 37 °C until an OD600 nm of 0.8-1.2 was reached. Protein expression was then induced with 0.4 mM isopropyl-β-d-thiogalactoside (IPTG), and cultures were incubated overnight at 18 °C. Cells were harvested by centrifugation (8600 rpm, 20 minutes, 4 °C) and resuspended in lysis buffer (50 mM Hepes, pH 8.0, 300 mM NaCl, 12.5 mM imidazole, 5 mM MgCl2, 2 mM βME) containing cOmplete™ EDTA-free Protease Inhibitor Cocktail tablets (1 tablet/100 ml lysate) and benzonase (1 µl/100 ml). After lysis using a C3 Emulsiflex-C3 homogenizer (Avestin), the cell lysate was cleared by centrifugation (20000 rpm, 30 minutes, 4 °C) and purified using Ni2+-affinity chromatography (Ni-NTA superflow cartridges, Qiagen).
# Typically two 5 mL columns (flow 5 mL/min) were used for a 2 L culture in which the lysate was loaded on the column washed with 10 CV wash buffer (50 mM Hepes, pH 8.0, 300 mM NaCl, 25 mM imidazole, 2 mM βME) and eluted in several fractions (2-4 CV) of elution buffer (50 mM Hepes, pH 8.0, 300 mM NaCl, 250 mM imidazole, 2 mM βME). Fractions containing the 14-3-3 protein were combined and dialyzed into 25 mM HEPES pH 8.0, 100 mM NaCl, 10 mM MgCl2, 500 µM TCEP. Finally, the protein was concentrated to ∼60 mg/mL, analyzed Q-Tof LC/MS, and aliquots were flash-frozen for storage at […]
# as §1, with “sigma truncated after T231 (14-3-3σΔc) and” for “gamma (14-3-3γ)”, “tablet/ 100” for “tablet/100”, “µl/ 100” for “µl/100”, “ml).” for “ml). After lysis using a C3 Emulsiflex-C3 homogenizer (Avestin), the cell lysate was cleared by centrifugation (20000 rpm, 30 minutes, 4 °C) and purified using Ni2+-affinity chromatography (Ni-NTA superflow cartridges, Qiagen).”
# After lysis using a C3 Emulsiflex-C3 homogenizer (Avestin), the cell lysate was cleared by centrifugation (20000 rpm, 30 minutes, 4 °C) and purified using Ni2+-affinity chromatography (Ni-NTA superflow cartridges, Qiagen). Typically two 5 mL columns were used for a 2 L culture in which the lysate was loaded on the column washed with 10 CV wash buffer (50 mM Hepes, pH 8.0, 300 mM NaCl, 25 mM imidazole, 2 mM βME) and eluted with several fractions (2-4 CV) of elution buffer (50 mM Hepes, pH 8.0, 300 mM NaCl, 250 mM imidazole, 2 mM βME). Fractions containing the 14-3-3 protein were combined and dialyzed into 25 mM HEPES pH 8.0, 200 mM NaCl, 10 mM MgCl2, 2 mM βME. In addition, 1 mg TEV was added for each 100 mg purified protein to remove the purification tag. The cleaved sample was then again loaded on a 10 mL Ni-NTA column to separate the cleaved product from the expression tag and residual uncleaved protein. The flowthrough was loaded on a Superdex 75 pg 16/60 size exclusion column (GE Life Sciences) using 25 mM HEPES, 100 mM NaCl, 10 mM MgCl2, 500 μM TCEP (adjusted to pH=8.0) as running buffer. Fractions containing the 14-3-3 protein were pooled and concentrated to ∼60 mg/mL, analyzed Q-Tof LC/MS, and aliquots were flash-frozen for storage at −80 […]
# The peptides 1 and 2a-d were synthesized on 50 µmol scale on a Rink amide MBHA resin […]
# [1] = FA KD of peptide divided by KD of previous (one amino acid longer) peptide, mean of n = 3
# [2] = KD / KD of previous peptide, replicate 1
# [3] = KD / KD of previous peptide, replicate 2
# [4] = KD / KD of previous peptide, replicate 3
# [5] = calculated from FA KD, mean of n = 3
# [6] = ΔG minus ΔG of previous peptide, FA, replicate 1
# [7] = ΔG minus ΔG of previous peptide, FA, replicate 2
# [8] = ΔG minus ΔG of previous peptide, FA, replicate 3
# [9] = ΔG of peptide minus ΔG of previous (one amino acid longer) peptide, FA, mean of n = 3
Compound,"individual ΔΔG of removed residue (FA, ΔG relative to the previously truncated peptide)",Fold change to previous [1],Fold change to previous [2],Fold change to previous [3],Fold change to previous [4],ΔG [5],"ΔG (from FA KD, replicate 1)","ΔG (from FA KD, replicate 2)","ΔG (from FA KD, replicate 3)",ΔΔG (to previous) [6],ΔΔG (to previous) [7],ΔΔG (to previous) [8],ΔΔG (to previous) [9],fold change in binding affinity on truncation (FA KD relative to the previous (one amino acid longer) peptide),"cumulative ΔΔG of truncating the entire N- or C-terminus (FA, relative to peptide 1 (2d: entire N-terminus; 2i: entire C-terminus))","ΔΔG C-term (cumulative, whole C-terminus removed) (Table S3, C-term = 2i relative to 1, FA, mean of n = 3)","ΔΔG C-term (cumulative) (Table S3, C-term = 2i relative to 1, FA, replicate 1)","ΔΔG C-term (cumulative) (Table S3, C-term = 2i relative to 1, FA, replicate 2)","ΔΔG C-term (cumulative) (Table S3, C-term = 2i relative to 1, FA, replicate 3)"
CCC[C@H](NC(=O)[C@@H](CCCCN)NC(=O)COCCNC(=S)Nc1ccc2c(c1)C(=O)OC21c2ccc(O)cc2Oc2cc(O)ccc21)C(=O)N[C@@H](Cc1ccc([N+](=O)[O-])cc1)C(=O)NC(Cc1cscn1)C(=O)N[C@@H](COP(=O)(O)O)C(=O)N[C@@H](Cc1ccc([N+](=O)[O-])cc1)C(N)=O (stereo partly shown) [2h] ({FITC-AEA}-[dK][Nva][Phe(4-NO2)][ξAla(4-thiazolyl)][pS][Phe(4-NO2)]-NH2),0.6 kcal/mol,"2,92","2,91","2,67","3,19","-7,04 kcal/mol","-7,08 kcal/mol","-7,00 kcal/mol","-7,04 kcal/mol","0,63 kcal/mol","0,58 kcal/mol","0,69 kcal/mol","0,63 kcal/mol",,,,,,
CCC[C@H](NC(=O)[C@@H](CCCCN)NC(=O)COCCNC(=S)Nc1ccc2c(c1)C(=O)OC21c2ccc(O)cc2Oc2cc(O)ccc21)C(=O)N[C@@H](Cc1ccc([N+](=O)[O-])cc1)C(=O)NC(Cc1cscn1)C(=O)N[C@@H](COP(=O)(O)O)C(N)=O (stereo partly shown) [2i] ({FITC-AEA}-[dK][Nva][Phe(4-NO2)][ξAla(4-thiazolyl)][pS]-NH2),,"4,04","4,23","3,56","4,33","-6,22 kcal/mol","-6,22 kcal/mol","-6,25 kcal/mol","-6,18 kcal/mol","0,85 kcal/mol","0,75 kcal/mol","0,87 kcal/mol","0,82 kcal/mol",four-fold,4.3 kcal/mol,"4,31 kcal/mol","4,39 kcal/mol","4,30 kcal/mol","4,23 kcal/mol"
